The text below walks through data of US9440982B2 (Eolas Therapeutics, Inc., priority 2012, dated 2016).

One series has as its target T1, CYP3A4 (Homo sapiens, UniProt P08684).
T1 construct: pre-incubated with human liver microsomes and NADPH; from tissue; host or cells: human liver microsomes
Briefly: Cytochrome P450 inhibition assay (midazolam hydroxylation). It counts as in vitro ADME. The following applies: human, human liver microsomes, probe midazolam (hydroxylation to 1′-hydroxymidazolam), 10 μM test compound, midazolam at approximately its Km. In short, it runs like this: (§1)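 Percent inhibition of midazolam 1′-hydroxylation by 10 μM compound was measured, midazolam dosed at about Km. Time-dependent inhibition was probed by a 30 min preincubation of compound with human liver microsomes and NADPH ahead of substrate, compared against samples without preincubation.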

In another series the test system is rats. Briefly: Nicotine self-administration assay (rats), with food responding. It counts as in vivo. The following applies: several doses. The source says: For all experiments, rats weighing 250-300 g were housed in groups of […] per cage, in a temperature-controlled vivarium under a reversed 12-h light/dark cycle (lights off at 8 am). Food and water were provided ad libitum until behavioral training commences. During training, rats were food-restricted to maintain ˜85-90% of their free-feeding body weight. Behavioral testing occurred during the dark portion of the light/dark cycle between the hours of 9 am-1 pm, during the early portion of the dark phase of the cycle. All procedures were conducted in strict adherence with the National Institutes of Health Guide for the Care and Use of Laboratory Animals and are approved by the Institutional Animal Care and Use Committee of The Scripps Research Institute.
Rats were anesthetized by inhalation of 1-3% isoflurane in oxygen and silastic catheters were inserted into the jugular veins. Briefly, the catheters consist of a 14 cm length of silastic tubing fitted to a guide cannula (Plastics One, Wallingford, Conn.), bent at a curved right angle and encased in dental acrylic. The catheter tubing was passed subcutaneously from each animal's back to the right jugular vein, and 1 cm length of the catheter tip was inserted into the vein. […] During the TO period, responding on the lever was recorded but without scheduled consequence. […]

A further series deals with Hcrt-R1 WT and KO mice. Briefly: Nicotine self-administration assay (mice), with food self-administration. The series is classed as in vivo. The following applies: for food self-administration (SA): KO and WT mice, systemic administration 30 min prior to the SA session; for nicotine SA: doses 0, 5 and 10 mg/kg. An excerpt: To generate Hcrt-R1^+/+ and […] mice, breeding pairs of male and female Hcrt-R1^+/− mice that were backcrossed >10 generations on a C57BL/6 background were obtained from Jackson Laboratory (Bar Harbor, Me.). For all experiments, mice weighing 25-35 g were housed in groups of 2-3 per cage, in a temperature-controlled vivarium under a reversed 12-h light/dark cycle (lights off at 8 am). Food and water were provided ad libitum until behavioral training commenced. During training, mice were food-restricted to maintain ˜85-90% of their free-feeding body weight. Behavioral testing occurred during the dark portion of the light/dark cycle between the hours of 9 am-1 pm, during the early portion of the dark phase of the cycle. All procedures were conducted in strict adherence with the National Institutes of Health Guide for the Care and Use of Laboratory Animals and were approved by the Institutional Animal Care and Use Committee of The Scripps Research Institute.
Mice were anesthetized by inhalation of 1-3% isoflurane in oxygen and silastic catheters were inserted into the jugular veins. Briefly, the catheters consisted of a 6 cm length of silastic tubing fitted to a guide cannula (Plastics One, Wallingford, Conn.), bent at a curved right angle and encased in dental acrylic. The catheter tubing was passed subcutaneously from each animal's back to the right jugular vein, and 1 cm length of the catheter tip was inserted into the vein. After surgery, catheters were flushed daily with 0.1 ml of a heparinized (30 USP units/ml) sterile saline solution. Following 7 d of surgical recovery, mice were mildly food restricted to 85-90% of their free-feeding body weight and trained to press a lever in an operant chamber (Med Associates, St. Albans, Vt.) for food pellets (20 mg; TestDiet, Richmond, Ind.) under a fixed-ratio 5, time out 20-s (FR5TO20 s) schedule of reinforcement […]. Once stable responding was achieved (>25 pellets per session), mice were permitted to acquire IV nicotine self-administration by autoshaping during 1-h daily sessions, 7 days per week. Nicotine was delivered through the tubing into the IV catheter by a Razel syringe pump (Med Associates). […] After 1 week, the nicotine dose was increased to 0.1 mg/kg/inf for the remainder of the experiment, including subsequent training and test sessions. […] During the TO period, responding on the lever was recorded but without scheduled consequence. […]
For Hcrt-R1 re-expression studies, the human Hcrt-R1 gene was cloned into the pCDF1 lentivirus expression vector containing copGFP (GFP cloned from copepod Pontellina plumata) from Systems Biosciences. […] Viral supernatant titres were determined using the Lentivector Rapid Titer Kit from System Biosciences, according to the manufacturer's instructions. […]

The target of another series is T2, OX1 (Homo sapiens, UniProt O43613).
T2 construct: expressed in transfected cells; host or cells: CHO (CHO-OX1, kept under selection antibiotic)
T2 sequence (O43613 1-425): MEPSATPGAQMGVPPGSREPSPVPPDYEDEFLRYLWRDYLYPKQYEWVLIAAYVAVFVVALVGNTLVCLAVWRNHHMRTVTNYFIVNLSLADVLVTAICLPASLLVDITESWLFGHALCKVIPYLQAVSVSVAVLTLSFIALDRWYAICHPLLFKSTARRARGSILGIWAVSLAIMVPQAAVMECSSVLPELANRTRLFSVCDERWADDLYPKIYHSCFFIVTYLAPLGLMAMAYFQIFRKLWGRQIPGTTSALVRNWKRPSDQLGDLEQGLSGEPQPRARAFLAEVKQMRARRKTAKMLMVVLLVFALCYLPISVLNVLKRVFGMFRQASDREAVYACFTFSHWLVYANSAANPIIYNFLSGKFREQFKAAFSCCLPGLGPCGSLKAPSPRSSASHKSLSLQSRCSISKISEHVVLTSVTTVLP
Description: Orexin receptor cell-based functional assay, [Ca2+]i by FLIPR, CHO-OX1 cells. In short, it runs like this: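 Antagonist mode FLIPR calcium read in CHO-OX1 and CHO-OX2 lines. Test compounds, dosed 0.1 nM-10 μM, preincubated 30 min after 37° C dye loading with 2.5 mM probenecid (calcium4 for 30 min or calcium6 for 2 h).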

For series [1], the target named is T3, cytochrome P450 3A4 isoform (Homo sapiens, UniProt P08684).
T3 construct: pre-incubated with human liver microsomes and NADPH; from tissue; host or cells: human liver microsomes
Briefly: Cytochrome P450 inhibition assay (midazolam hydroxylation). It counts as in vitro ADME. The conditions noted are these: 10 μM test compound; midazolam at approximately its Km; human liver microsomes; 10 µM. In outline: as §1
A general note: Liver microsomes are vesicles of endoplasmic reticulum, rich in cytochrome P450 enzymes.

The term inhibition denotes the change of the read-out against control, counted positive when it falls. High values mean strong suppression, low ones little suppression.

Like-named read-outs stand apart in the source and are kept apart here.

T1 sequence (P08684 whole entry): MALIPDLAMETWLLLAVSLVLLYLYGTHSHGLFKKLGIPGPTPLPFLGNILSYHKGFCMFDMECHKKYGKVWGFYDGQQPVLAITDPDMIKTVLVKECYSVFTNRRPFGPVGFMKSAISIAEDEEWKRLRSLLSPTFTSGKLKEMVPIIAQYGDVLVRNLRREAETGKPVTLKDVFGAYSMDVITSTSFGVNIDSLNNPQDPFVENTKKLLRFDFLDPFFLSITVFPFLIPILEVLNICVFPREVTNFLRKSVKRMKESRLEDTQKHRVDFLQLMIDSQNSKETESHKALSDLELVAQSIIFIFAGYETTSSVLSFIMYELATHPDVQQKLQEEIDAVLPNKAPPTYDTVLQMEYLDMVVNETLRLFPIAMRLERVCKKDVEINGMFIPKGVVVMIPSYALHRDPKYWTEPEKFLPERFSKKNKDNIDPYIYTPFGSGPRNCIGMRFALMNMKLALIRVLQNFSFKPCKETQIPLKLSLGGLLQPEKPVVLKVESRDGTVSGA
T3 sequence (P08684 whole entry, canonical isoform): as the sequence (P08684 whole entry) above

On CYP3A4, `Cc1ccc(-c2cnn(C)c2)c(C(=O)N2CCC[C@@H](C)[C@H]2CNc2ccc(C(F)(F)F)cn2)c1` [Example A1, ((2S,3R)-3-Methyl-2-(((5-(trifluoromethyl)pyridin-2-yl)amino)methyl)piperidin-1-yl)(5-methyl-2-(1-methyl-1H-pyrazol-4-yl)phenyl)methanone] yielded an inhibition at 10 µM of 98%. In addition, in the series with rats, the food intake result is recorded as “does not have a significant effect” and the nicotine self-administration entry is recorded as “dose-dependent reduction”.

Regarding `CC1(C)OC[C@H](NC(=O)Nc2ccc(Br)cc2Br)[C@H](c2ccccc2)O1` [JNJ10397049], the “food self-administration (SA)” value in the series on Hcrt-R1 WT and KO mice is recorded as “no effect”. Besides, the “nicotine SA” value with Hcrt-R1 WT and KO mice (KO mice) is listed as “marginal decrease”; with Hcrt-R1 WT and KO mice (WT mice) it was “no effect”.

Turning to `Cc1ccc(-c2cnn(C)c2)c(C(=O)N2CCC[C@@H](C)[C@H]2CNc2nc3cc(Cl)ccc3o2)c1` [Example A40, ((2S,3R)-2-(((5-Chlorobenzo[d]oxazol-2-yl)amino)methyl)-3-methylpiperidin-1-yl)(5-methyl-2-(1-methyl-1H-pyrazol-4-yl)phenyl)methanone], on OX1 (CHO-OX1 cells, [Ca2+]i by FLIPR, antagonist dose-range 0.1 nM-10 μM, EC90 of OXA, read-out: OX1), the IC50 is 20 nM. The “% CYP3A4 Inhibition” value in series [1] was 96%.

As to `Cc1nc(C(=O)N2CCC[C@@H](C)[C@H]2CNc2ccc(C(F)(F)F)cn2)c(-c2ccc(F)cc2)s1` (racemic) [Example 11, rac-cis-(5-(4-Fluorophenyl)-2-methylthiazol-4-yl)(3-methyl-2-(((5-(trifluoromethyl)pyridin-2-yl)amino)methyl)piperidin-1-yl)methanone], the IC50 is 8 nM on OX1 (Table 2, CHO-OX1 cells, EC90 of OXA, read-out: IC50 Bioactivity OX1) and 8 nM on OX1 (Table 6, racemate vs enantiomers, read-out: OX1 IC50). Besides, in the series on Hcrt-R1 WT and KO mice, the “food self-administration (SA)” value is reported as “no effect”.
